# Reference: PubChem BioAssay AID2060624 (Molecular Pharmacology Branch, DTP, NCI, 2025)
# pIC50: −log10 of the molar value.
# System: 217524-143-R1-J4-PDC spheroids with HUVEC/MSC, viability
# Test: Anticancer human tumor 217524-143-R1-J4-PDC patient-derived pancreatic carcinoma cell line growth inhibition [CLK]
# Details: for pIC50: curve of first compound; for viability, T/C: stronger effect = lower value
# In short: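 Multi-cell-type spheroids combined patient-derived tumor cells with HUVEC endothelial cells and human mesenchymal stem cells. Paired agents were dosed in half-log steps down from about clinical Cmax, or from 10 microM where Cmax was unknown.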
# [1] = second compound 0.0316 µM, first compound 0.0316 µM
# [2] = second compound 0.0316 µM, first compound 0.1 µM
# [3] = second compound 0.0316 µM, first compound 0.316 µM
# [4] = second compound 0.0316 µM, first compound 1 µM
# [5] = second compound 0.0316 µM, first compound 3.16 µM
# [6] = second compound 0.0316 µM, first compound 10 µM
# [7] = second compound 0.1 µM, first compound 0.0316 µM
# [8] = second compound 0.1 µM, first compound 0.1 µM
# [9] = second compound 0.1 µM, first compound 0.316 µM
# [10] = second compound 0.1 µM, first compound 1 µM
# [11] = second compound 0.1 µM, first compound 3.16 µM
# [12] = second compound 0.1 µM, first compound 10 µM
# [13] = second compound 0.316 µM, first compound 0.0316 µM
# [14] = second compound 0.316 µM, first compound 0.1 µM
# [15] = second compound 0.316 µM, first compound 0.316 µM
# [16] = second compound 0.316 µM, first compound 1 µM
# [17] = second compound 0.316 µM, first compound 3.16 µM
# [18] = second compound 0.316 µM, first compound 10 µM
# [19] = second compound 1 µM, first compound 0.0316 µM
# [20] = second compound 1 µM, first compound 0.1 µM
# [21] = second compound 1 µM, first compound 0.316 µM
# [22] = second compound 1 µM, first compound 1 µM
# [23] = second compound 1 µM, first compound 3.16 µM
# [24] = second compound 1 µM, first compound 10 µM
# [25] = second compound 3.16 µM, first compound 0.0316 µM
# [26] = second compound 3.16 µM, first compound 0.1 µM
# [27] = second compound 3.16 µM, first compound 0.316 µM
# [28] = second compound 3.16 µM, first compound 1 µM
# [29] = second compound 3.16 µM, first compound 3.16 µM
# [30] = second compound 3.16 µM, first compound 10 µM
# [31] = second compound 10 µM, first compound 0.0316 µM
# [32] = second compound 10 µM, first compound 0.1 µM
# [33] = second compound 10 µM, first compound 0.316 µM
# [34] = second compound 10 µM, first compound 1 µM
# [35] = second compound 10 µM, first compound 3.16 µM
# [36] = second compound 10 µM, first compound 10 µM
# 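Also: spheroids exposed to agents for seven days before reading.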
# 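For viability, T/C in this document: 100% = DMSO vehicle control viability.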
structure (smiles),measurement,setting,value
CC(=O)O[C@H]1C(=O)[C@@]2(C)[C@H]([C@H](OC(=O)c3ccccc3)[C@]3(O)C[C@H](OC(=O)[C@H](O)[C@@H](NC(=O)c4ccccc4)c4ccccc4)C(C)=C1C3(C)C)[C@]1(OC(C)=O)CO[C@@H]1C[C@@H]2O + CNC(=O)c1ccc(Nc2nc(OC3CCCC3)c3c(-c4ccc5nc(C)oc5c4)c[nH]c3n2)c(OC)c1,pIC50,second compound 0.0316 µM,> 7.50
same,pIC50,second compound 0.1 µM,> 7.50
same,pIC50,second compound 0.316 µM,> 7.50
same,pIC50,second compound 1 µM,> 7.50
same,pIC50,second compound 3.16 µM,> 7.50
same,pIC50,second compound 10 µM,> 7.50
same,"viability, T/C",[1],19.7%
same,"viability, T/C",[2],14.3%
same,"viability, T/C",[3],16.9%
same,"viability, T/C",[4],16.6%
same,"viability, T/C",[5],25.4%
same,"viability, T/C",[6],30.8%
same,"viability, T/C",[7],31.3%
same,"viability, T/C",[8],26.3%
same,"viability, T/C",[9],31.9%
same,"viability, T/C",[10],28%
same,"viability, T/C",[11],33.3%
same,"viability, T/C",[12],43.4%
same,"viability, T/C",[13],34.9%
same,"viability, T/C",[14],30.4%
same,"viability, T/C",[15],37%
same,"viability, T/C",[16],39.8%
same,"viability, T/C",[17],34.5%
same,"viability, T/C",[18],33%
same,"viability, T/C",[19],20.6%
same,"viability, T/C",[20],27.6%
same,"viability, T/C",[21],33.4%
same,"viability, T/C",[22],39.4%
same,"viability, T/C",[23],35.9%
same,"viability, T/C",[24],33%
same,"viability, T/C",[25],20.9%
same,"viability, T/C",[26],26.1%
same,"viability, T/C",[27],31%
same,"viability, T/C",[28],34.8%
same,"viability, T/C",[29],37.6%
same,"viability, T/C",[30],31.2%
same,"viability, T/C",[31],19.1%
same,"viability, T/C",[32],27.5%
same,"viability, T/C",[33],29%
same,"viability, T/C",[34],36.2%
same,"viability, T/C",[35],40.2%
same,"viability, T/C",[36],32.2%
CCc1c2c(nc3ccc(O)cc13)-c1cc3c(c(=O)n1C2)COC(=O)[C@]3(O)CC + CNC(=O)c1ccc(Nc2nc(OC3CCCC3)c3c(-c4ccc5nc(C)oc5c4)c[nH]c3n2)c(OC)c1,pIC50,second compound 0.0316 µM,8.42
same,pIC50,second compound 0.1 µM,> 8.50
same,pIC50,second compound 0.316 µM,> 8.50
same,pIC50,second compound 1 µM,> 8.50
same,pIC50,second compound 3.16 µM,> 8.50
same,pIC50,second compound 10 µM,> 8.50
same,"viability, T/C","second compound 0.0316 µM, first compound 0.00316 µM",53.2%
same,"viability, T/C","second compound 0.0316 µM, first compound 0.01 µM",39.4%
same,"viability, T/C",[1],32.2%
same,"viability, T/C",[2],24.1%
same,"viability, T/C",[3],15.6%
same,"viability, T/C",[4],3.04%
same,"viability, T/C","second compound 0.1 µM, first compound 0.00316 µM",48.7%
same,"viability, T/C","second compound 0.1 µM, first compound 0.01 µM",35.8%
same,"viability, T/C",[7],27.9%
same,"viability, T/C",[8],24.6%
same,"viability, T/C",[9],17.4%
same,"viability, T/C",[10],3.12%
same,"viability, T/C","second compound 0.316 µM, first compound 0.00316 µM",39.6%
same,"viability, T/C","second compound 0.316 µM, first compound 0.01 µM",30.1%
same,"viability, T/C",[13],25.1%
same,"viability, T/C",[14],21.4%
same,"viability, T/C",[15],12.9%
same,"viability, T/C",[16],3.58%
same,"viability, T/C","second compound 1 µM, first compound 0.00316 µM",24.6%
same,"viability, T/C","second compound 1 µM, first compound 0.01 µM",20.5%
same,"viability, T/C",[19],17.6%
same,"viability, T/C",[20],15.6%
same,"viability, T/C",[21],9.88%
same,"viability, T/C",[22],3.65%
same,"viability, T/C","second compound 3.16 µM, first compound 0.00316 µM",23.6%
same,"viability, T/C","second compound 3.16 µM, first compound 0.01 µM",20.8%
same,"viability, T/C",[25],15.6%
same,"viability, T/C",[26],13%
same,"viability, T/C",[27],9.01%
same,"viability, T/C",[28],2.91%
same,"viability, T/C","second compound 10 µM, first compound 0.00316 µM",23.2%
same,"viability, T/C","second compound 10 µM, first compound 0.01 µM",18.8%
same,"viability, T/C",[31],17%
same,"viability, T/C",[32],13.4%
same,"viability, T/C",[33],10%
same,"viability, T/C",[34],3.01%
COc1cccc2c1C(=O)c1c(O)c3c(c(O)c1C2=O)CC(O)(C(=O)CO)CC3OC1CC(N)C(O)C(C)O1 (stereo unspecified) + CNC(=O)c1ccc(Nc2nc(OC3CCCC3)c3c(-c4ccc5nc(C)oc5c4)c[nH]c3n2)c(OC)c1,pIC50,second compound 0.0316 µM,> 7.50
same,pIC50,second compound 0.1 µM,> 7.50
same,pIC50,second compound 0.316 µM,> 7.50
same,pIC50,second compound 1 µM,> 7.50
same,pIC50,second compound 3.16 µM,> 7.50
same,pIC50,second compound 10 µM,> 7.50
same,"viability, T/C",[1],32.9%
same,"viability, T/C",[2],32.3%
same,"viability, T/C",[3],25.3%
same,"viability, T/C",[4],17.2%
same,"viability, T/C",[5],3.45%
same,"viability, T/C",[6],0.92%
same,"viability, T/C",[7],38.2%
same,"viability, T/C",[8],33.7%
same,"viability, T/C",[9],23%
same,"viability, T/C",[10],18.9%
same,"viability, T/C",[11],2.48%
same,"viability, T/C",[12],1.28%
same,"viability, T/C",[13],32.2%
same,"viability, T/C",[14],28.5%
same,"viability, T/C",[15],16.5%
same,"viability, T/C",[16],12.8%
same,"viability, T/C",[17],2.83%
same,"viability, T/C",[18],0.97%
same,"viability, T/C",[19],25.2%
same,"viability, T/C",[20],18.7%
same,"viability, T/C",[21],11.8%
same,"viability, T/C",[22],7.57%
same,"viability, T/C",[23],1.43%
same,"viability, T/C",[24],0.99%
same,"viability, T/C",[25],18.7%
same,"viability, T/C",[26],16%
same,"viability, T/C",[27],13%
same,"viability, T/C",[28],6.9%
same,"viability, T/C",[29],0.62%
same,"viability, T/C",[30],1.17%
same,"viability, T/C",[31],22.2%
same,"viability, T/C",[32],14.7%
same,"viability, T/C",[33],10.7%
same,"viability, T/C",[34],6.9%
same,"viability, T/C",[35],0.98%
same,"viability, T/C",[36],1.5%
